IC50 data for 22 compounds are collected here from ChEMBL document CHEMBL4334432, “Development of benzochalcone derivatives as selective CYP1B1 inhibitors and anticancer agents” (Medchemcomm, 2019).

As a reminder, the pIC50 is −log10 of the IC50, conventionally taken in molar units.

The structures appear in SMILES notation. pIC50: −log10 of the molar value.

One assay deals with T1, Cytochrome P450 1A2 (Homo sapiens, UniProt P05177).
T1 sequence (P05177 whole entry): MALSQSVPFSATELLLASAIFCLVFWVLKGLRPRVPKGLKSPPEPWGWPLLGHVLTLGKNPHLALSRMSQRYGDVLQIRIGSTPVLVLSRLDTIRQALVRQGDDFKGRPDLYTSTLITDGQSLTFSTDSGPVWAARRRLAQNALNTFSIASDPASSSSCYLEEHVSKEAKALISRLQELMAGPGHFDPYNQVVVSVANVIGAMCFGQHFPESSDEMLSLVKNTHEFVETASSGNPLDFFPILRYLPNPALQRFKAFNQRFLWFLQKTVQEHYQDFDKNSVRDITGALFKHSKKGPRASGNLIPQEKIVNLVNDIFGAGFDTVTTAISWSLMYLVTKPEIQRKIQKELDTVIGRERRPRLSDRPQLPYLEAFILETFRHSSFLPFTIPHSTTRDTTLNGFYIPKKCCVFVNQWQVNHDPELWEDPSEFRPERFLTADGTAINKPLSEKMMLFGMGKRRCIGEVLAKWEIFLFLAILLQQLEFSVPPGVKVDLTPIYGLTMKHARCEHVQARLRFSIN
Kind of assay: Inhibition of recombinant human CYP1A2 expressed in supersomes using 7-ethoxyresorufin as substrate after 50 mins in presence of NADP+ by EROD assay. The assay is classed as ADME.

The subject of assay [1] is MCF7. Kind of assay: Cytotoxicity against drug-resistant […]-induced human MCF7 cells overexpressing CYP1B1 assessed as reduction in cell viability after 48 hrs by MTT assay. The assay is classed as functional, cell-based. Particulars: MCF7, 48 h.
The nature of assay [2]: Cytotoxicity against drug-resistant human MDA-MB-435/LCC6MDR1 cells assessed as reduction in cell viability after 48 hrs by MTT assay. The assay is classed as functional, cell-based. Particulars: MDA-MB-435/LCC6 MDR1, 48 h.
The subject of a further assay is MDA-MB-231. Kind of assay: cells. Particulars: Homo sapiens, MDA-MB-231, 48 h.
Assay [3] concerns MCF7. Kind of assay: cells. Particulars: Homo sapiens, MCF7, 48 h.
Description: Cytotoxicity against human MCF7 cells assessed as reduction in cell viability after 48 hrs by MTT assay
The next assay has as its target T2, Cytochrome P450 1A1 (Homo sapiens, UniProt P04798).
T2 sequence (P04798 whole entry): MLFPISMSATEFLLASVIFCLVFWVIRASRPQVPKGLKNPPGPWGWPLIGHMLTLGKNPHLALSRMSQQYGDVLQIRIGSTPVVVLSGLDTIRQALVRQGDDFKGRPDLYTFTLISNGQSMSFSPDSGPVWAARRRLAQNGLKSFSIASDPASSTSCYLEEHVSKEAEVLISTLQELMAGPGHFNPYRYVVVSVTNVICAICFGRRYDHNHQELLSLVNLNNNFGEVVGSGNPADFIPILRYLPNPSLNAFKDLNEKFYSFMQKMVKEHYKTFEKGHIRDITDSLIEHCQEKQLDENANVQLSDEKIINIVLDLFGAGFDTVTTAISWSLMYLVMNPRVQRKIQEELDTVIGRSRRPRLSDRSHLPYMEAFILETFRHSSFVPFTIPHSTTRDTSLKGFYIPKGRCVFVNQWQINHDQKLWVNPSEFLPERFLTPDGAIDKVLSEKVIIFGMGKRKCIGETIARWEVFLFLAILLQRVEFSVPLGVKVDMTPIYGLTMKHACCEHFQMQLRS
Kind of assay: Inhibition of recombinant human CYP1A1 expressed in supersomes using 7-ethoxyresorufin as substrate after 15 mins in presence of NADP+ by EROD assay. The assay is classed as ADME.

Description for MDA-MB-231: Cytotoxicity against human MDA-MB-231 cells assessed as reduction in cell viability after 48 hrs by MTT assay

`O=C(/C=C/c1ccc[nH]1)c1ccc2ccccc2c1O`: the pIC50 on Cytochrome P450 1A2 was less than 6.00.
With `O=c1[nH]cc(F)c(=O)[nH]1` [FLUOROURACIL], the pIC50 is less than 4.00 in the assay on MCF7 [1], less than 4.00 in assay [2], 4.03 in the assay on MDA-MB-231 and less than 4.00 with MCF7 [3].
As for `Nc1nc(-c2ccccc2)cc(-c2ccc3ccccc3c2)n1`, the pIC50 on Cytochrome P450 1A2 was less than 6.00.
Regarding `O=C(/C=C/c1ccccc1)c1ccc2ccccc2c1O`, the pIC50 on Cytochrome P450 1A2 is less than 6.00.
Regarding `O=C(/C=C/c1ccc(Cl)cc1)c1ccc2ccccc2c1O`, the pIC50 on Cytochrome P450 1A2 was less than 6.00.
With `O=C(/C=C/c1ccccc1Cl)c1ccc2ccccc2c1O`, the pIC50 on Cytochrome P450 1A2 is less than 6.00.
Still for that read-out and setting: next, `COc1ccccc1/C=C/C(=O)c1ccc2ccccc2c1O`: less than 6.00; `O=C(/C=C/c1cccnc1)c1ccc2ccccc2c1O`: 6.64.
Consider `O=c1cc(-c2ccccc2)oc2c1ccc1ccccc12` [ALPHA-NAPHTHOFLAVONE], for which the pIC50 was less than 4.00 in the assay with MCF7 [1]; 4.08 in assay [2]; less than 4.00 in the assay with MDA-MB-231; 4.09 with MCF7 [3]; 7.10 on Cytochrome P450 1A1.
In the case of `COc1ccc(OC)c2c(OC)c(/C=C/C(=O)c3ccc4ccccc4c3O)cc(OC)c12`, the negative logarithm of the IC50 (pIC50) at Cytochrome P450 1A2 is less than 6.00.
Consider `O=C(/C=C/c1ccccc1F)c1ccc2ccccc2c1O`, for which the pIC50 on Cytochrome P450 1A2 was less than 6.00.
Turning to `O=C(/C=C/c1ccccc1O)c1ccc2ccccc2c1O`, the pIC50 at Cytochrome P450 1A2 was less than 6.00.
`COc1ccc(OC)c2c(O)c(C(=O)/C=C/c3ccccc3)cc(OC)c12`: at Cytochrome P450 1A2, the negative-log IC50 (pIC50) is 6.13.
Same read-out and setting: next, `O=C(/C=C/c1cccc(F)c1)c1ccc2ccccc2c1O`: less than 6.00; `Nc1c(C(=O)/C=C/c2ccccc2)ccc2ccccc12`: less than 6.00.
For the compound `COc1c(C(=O)/C=C/c2ccccc2)ccc2ccccc12`, on Cytochrome P450 1A2, the pIC50 is less than 6.00.
As to `O=C(/C=C/c1cccc(Cl)c1)c1ccc2ccccc2c1O`, on Cytochrome P450 1A2, the pIC50 was less than 6.00.
Consider `O=C(/C=C/c1ccccc1)c1ccc2ccccc2c1`, for which the pIC50 in the assay on MCF7 [1] was 4.74; at Cytochrome P450 1A2 it was less than 6.00; in assay [2], 4.71; with MDA-MB-231, 4.47; in the assay on MCF7 [3] it was 4.61.
As to `O=C(/C=C/c1ccncc1)c1ccc2ccccc2c1O`, at Cytochrome P450 1A2, the pIC50 is less than 6.00.
With `O=C(CCc1ccccc1)c1ccc2ccccc2c1O`, the pIC50 at Cytochrome P450 1A2 is less than 6.00.
As for `O=C(/C=C/c1ccc(F)cc1)c1ccc2ccccc2c1O`, the pIC50 at Cytochrome P450 1A2 was less than 6.00.
For `O=C(/C=C/c1ccccn1)c1ccc2ccccc2c1O`, on Cytochrome P450 1A2, the pIC50 is less than 6.00.
